In patent publication US20170253581A1, “SUBSTITUTED HETEROCYCLES AS c-MYC TARGETING AGENTS” (Northwestern University, priority 2016, published 2017):

Biological target: Myc/Max binding to DNA (Homo sapiens, UniProt P01106)
Assay: Electrophoretic mobility shift assay (EMSA) of Myc/Max binding to DNA
Type: biochemical
Settings: EMSA; for remaining activity at 100 µM / Bound DNA (%) (100uM): 100 uM test compound; for remaining activity at 100 µM: read-out: Bound DNA (%) (100uM); for remaining activity at 50 µM: read-out: Bound DNA (%) (50uM)
Experimental: We also tested our best hit compound Min9 (NUCC-0176234) and newly synthesized analogs for effects of these compounds on Myc/Max binding to DNA in electrophoretic mobility shift assays (EMSAs). (See FIG. 5a and FIG. 5b). We expected the active compounds to impair Myc/Max binding to DNA. Several strucutural analogs of Min9 were tested over multiple doses for inhibiting Myc-DNA binding and we observed a dose-dependent inhibition. (See FIG. 5c).
Additional compounds were synthesized and tested in the EMSA assay at concentrations of 200 μM, 100 μM, and 50 μM.

Myc/Max binding to DNA, sequence (P01106 whole entry): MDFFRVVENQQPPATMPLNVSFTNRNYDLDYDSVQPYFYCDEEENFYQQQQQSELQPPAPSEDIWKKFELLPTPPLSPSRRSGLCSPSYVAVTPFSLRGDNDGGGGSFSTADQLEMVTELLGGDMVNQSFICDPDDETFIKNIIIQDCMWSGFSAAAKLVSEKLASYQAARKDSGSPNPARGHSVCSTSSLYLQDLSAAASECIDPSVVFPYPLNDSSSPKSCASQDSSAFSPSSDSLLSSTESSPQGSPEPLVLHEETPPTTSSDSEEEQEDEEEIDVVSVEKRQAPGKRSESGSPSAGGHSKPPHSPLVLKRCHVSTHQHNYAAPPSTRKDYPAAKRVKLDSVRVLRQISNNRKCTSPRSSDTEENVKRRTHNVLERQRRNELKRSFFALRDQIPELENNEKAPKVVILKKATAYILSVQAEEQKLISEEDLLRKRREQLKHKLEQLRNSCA

Compound | remaining activity at 100 µM [%] | Bound DNA (%) (100uM) | remaining activity at 50 µM (50 uM test compound) [%] | Bound DNA (%) (50uM) (50 uM test compound)
Cn1nc(C(F)(F)F)c(-c2ccc(C(N)=O)cc2)c1-c1ccc(OCc2ccc(Cl)cc2)cc1O [compound 0198409] | 69 |  |  | 
Cn1nc(C(F)(F)F)c(-c2ccccc2OC(F)(F)F)c1-c1ccc(OCc2ccc(Cl)cc2)cc1O [compound 0198410] | 44 |  |  | 
CCc1ccc(Oc2c(-c3ccc(O)cc3O)nn(C)c2C(F)(F)F)cc1 [compound 0198411] |  | 30 |  | 
Cn1nc(C(F)(F)F)cc1-c1ccc(OCc2ccc(Cl)cc2)cc1O [compound 0198412] | 91 |  |  | 
CCOC(=O)c1[nH]nc(-c2ccc(OCc3ccc(Cl)cc3)cc2O)c1-c1ccc(C#N)cc1 [compound 0200489] | 100 |  | 99 | 
Oc1cc(OCc2ccc(Cl)cc2)ccc1-c1n[nH]c(C(F)(F)F)c1Cc1ccccc1Cl [compound 0200490] | 99 |  | 97 | 
Oc1cc(Nc2ccc(Cl)cc2)ccc1-c1cc(C(F)(F)F)[nH]n1 [compound 0200491] |  | 0 | 73 | 
Cn1nc(-c2ccc(Nc3ccc(Cl)cc3)cc2O)cc1C(F)(F)F [compound 0200492] | 24 |  | 92 | 
Oc1cc(NCc2ccc(Cl)cc2)ccc1-c1cc(C(F)(F)F)[nH]n1 [compound 0200493] | 42 |  | 92 | 
Cn1nc(-c2ccc(NCc3ccc(Cl)cc3)cc2O)cc1C(F)(F)F [compound 0200494] | 89 |  | 99 | 
Oc1ccc(-c2n[nH]c(C(F)(F)F)c2-c2cc(C(F)(F)F)cc(C(F)(F)F)c2)c(O)c1 [compound 0200495] | 8 |  | 86 | 
COc1ccc(-c2c(-c3ccc(O)cc3O)n[nH]c2C(F)(F)F)cc1OC [compound 0200496] | 81 |  | 98 | 
Nc1ccc(-c2cc(C(F)(F)F)[nH]n2)c(O)c1 [compound 0200497] | 109 |  | 107 | 
Cn1nc(-c2ccc(N)cc2O)cc1C(F)(F)F [compound 0200498] | 101 |  | 100 | 
Oc1cc(OCc2ccc(Cl)cc2)ccc1-c1cc(C(F)(F)F)n(Cc2ccccc2)n1 [compound 0200499] | 100 |  | 109 | 
Oc1cc(OCc2ccc(Cl)cc2)ccc1-c1cc(C(F)(F)F)nc(-c2cccc(C(F)(F)F)c2)n1 [compound 0200500] | 109 |  | 100 | 
Oc1cc(OCc2ccc(Cl)cc2)ccc1-c1cc(C(F)(F)F)nc(-c2cc(C(F)(F)F)cc(C(F)(F)F)c2)n1 [compound 0200501] | 79 |  | 91 | 
Nc1nc(-c2ccc(OCc3ccc(Cl)cc3)cc2O)cc(C(F)(F)F)n1 [compound 0200502] | 94 |  | 64 | 
Oc1cc(OCc2ccc(Cl)cc2)ccc1-c1cc(C(F)(F)F)nc(-c2ccc(F)cc2)n1 [compound 0200503] | 91 |  | 89 | 
N#Cc1cccc(-c2c(-c3ccc(OCc4ccc(Cl)cc4)cc3O)n[nH]c2C(N)=O)c1 [compound 0200557] | 53 |  | 46 | 

Compound | remaining activity at 100 µM [%] | Bound DNA (%) (100uM) | remaining activity at 50 µM (50 uM test compound) [%] | Bound DNA (%) (50uM) (50 uM test compound)
Cn1nc(-c2ccc(OCc3ccc(Cl)cc3)cc2O)c(-c2cccc(C#N)c2)c1C(N)=O [compound 0200558] | 9 |  | 20 | 
Oc1cc(Nc2ccc(F)c(F)c2)ccc1-c1cc(C(F)(F)F)[nH]n1 [compound 0200559] | 39 |  | 76 | 
Cn1nc(-c2ccc(Nc3ccc(F)c(F)c3)cc2O)cc1C(F)(F)F [compound 0200560] | 56 |  | 91 | 
Oc1cc(Nc2ccc3c(c2)OCO3)ccc1-c1cc(C(F)(F)F)[nH]n1 [compound 0200561] | 59 |  | 91 | 
Cn1nc(-c2ccc(Nc3ccc4c(c3)OCO4)cc2O)cc1C(F)(F)F [compound 0200562] | 77 |  | 101 | 
NC(=O)c1ccc(Nc2ccc(-c3cc(C(F)(F)F)[nH]n3)c(O)c2)cc1 [compound 0200563] | 92 |  | 101 | 
Cn1nc(-c2ccc(Nc3ccc(C(N)=O)cc3)cc2O)cc1C(F)(F)F [compound 0200564] | 93 |  | 103 | 
Oc1cc(Nc2ccccn2)ccc1-c1cc(C(F)(F)F)[nH]n1 [compound 0200565] | 112 |  | 112 | 
Cn1nc(-c2ccc(Nc3ccccn3)cc2O)cc1C(F)(F)F [compound 0200566] | 118 |  | 109 | 
CN1CCN(c2ccc(-c3cc(C(F)(F)F)[nH]n3)c(O)c2)CC1 [compound 0200567] | 115 |  | 117 | 
CN1CCN(c2ccc(-c3cc(C(F)(F)F)n(C)n3)c(O)c2)CC1 [compound 0200568] | 93 |  | 109 | 
Oc1cc(Nc2ccc(-n3ccnc3)cc2)ccc1-c1cc(C(F)(F)F)[nH]n1 [compound 0200569] | 91 |  | 89 | 
Oc1cccc(OCc2ccc(Cl)cc2)c1-c1cc(C(F)(F)F)n[nH]1 [compound 0200570] | 83 |  | 85 | 
N#Cc1cccc(-c2c(C(F)(F)F)n[nH]c2-c2cc(OCc3ccc(Cl)cc3)ccc2O)c1 [compound 0200571] | 72 |  | 87 | 
Cc1ccc(-c2c(C(F)(F)F)n[nH]c2-c2cc(OCc3ccc(Cl)cc3)ccc2O)cc1 [compound 0200572] | 78 |  | 85 | 
Oc1ccc(OCc2ccc(Cl)cc2)cc1-c1cc(C(F)(F)F)n[nH]1 [compound 0200573] | 102 |  |  | 
Oc1ccccc1-c1cc(C(F)(F)F)n[nH]1 [compound 0200574] | 107 |  |  | 
Oc1ccc(OCc2ccc(Cl)cc2)cc1-c1[nH]nc(C(F)(F)F)c1-c1ccc(F)cc1 [compound 0200575] | 13 |  |  | 
Oc1ccc(OCc2ccc(Cl)cc2)cc1-c1[nH]nc(C(F)(F)F)c1-c1ccccc1Cl [compound 0200576] | 3 |  |  | 
FC(F)(F)c1cc2n(n1)-c1ccccc1Oc1cc(OCc3ccc(Cl)cc3)ccc1-2 [compound 0200577] | 100 |  |  | 

Compound | remaining activity at 100 µM [%] | Bound DNA (%) (100uM) | remaining activity at 50 µM (50 uM test compound) [%] | Bound DNA (%) (50uM) (50 uM test compound)
NC(=O)c1cc(-c2ccc(Nc3ccc(Cl)cc3)cc2O)n[nH]1 [compound 0200677] | 102 |  |  | 
N#Cc1cc(-c2ccc(Nc3ccc(Cl)cc3)cc2O)n[nH]1 [compound 0200678] | 104 |  |  | 
Oc1cc(Nc2ccc(Cl)cc2)ccc1-c1cc(C(F)(F)F)[nH]n1 [compound 0200679] |  | 38 |  | 79
CCc1ccc(Oc2c(-c3ccc(Nc4ccc(Cl)cc4)cc3O)n[nH]c2C(F)(F)F)cc1 [compound 0200680] | 40 |  | 96 | 
CCc1ccc(Oc2c(-c3ccc(Oc4ccc(Cl)cc4)cc3O)n[nH]c2C(F)(F)F)cc1 [compound 0200681] | 8 |  | 90 | 
CCc1ccc(Oc2c(-c3ccc(O)cc3O)nn(C)c2C(F)(F)F)cc1 [compound 0200682] |  | 95 | 101 | 
CCc1ccc(Oc2c(-c3ccccc3O)n[nH]c2C(F)(F)F)cc1 [compound 0200683] | 20 |  | 87 | 
CCc1ccc(Oc2c(-c3ccccc3O)nn(C)c2C(F)(F)F)cc1 [compound 0200684] | 101 |  | 102 | 
Oc1ccccc1C1=NNC(c2ccccc2)C1 (stereo not shown) [compound 0200685] | 103 |  | 102 | 
Oc1cc(OCc2ccc(Cl)cc2)ccc1-c1[nH]nc(C(F)(F)F)c1-c1ccc2c(c1)OCCO2 [compound 0200686] | 87 |  | 98 | 
Cn1nc(C(F)(F)F)cc1-c1ccc(O)cn1 [compound 0200687] | 101 |  | 100 | 
Cn1nc(C(F)(F)F)cc1-c1ccc(N)cn1 [compound 0200688] | 103 |  | 102 | 
Cn1nc(C(F)(F)F)cc1-c1cnc(O)cn1 [compound 0200689] | 98 |  | 98 | 
Cn1nc(C(F)(F)F)cc1-c1ccc(OCc2ccc(Cl)cc2)cn1 [compound 0200690] | 95 |  | 98 | 
Cn1nc(C(F)(F)F)cc1-c1ccc(NCc2ccc(Cl)cc2)cn1 [compound 0200691] | 97 |  | 94 | 
Cn1nc(C(F)(F)F)cc1-c1cnc(OCc2ccc(Cl)cc2)cn1 [compound 0200692] | 89 |  | 97 | 
Oc1cc(Nc2ccc(Cl)c(Cl)c2)ccc1-c1cc(C(F)(F)F)[nH]n1 [compound 0200721] | 4 |  | 87 | 
c1ccc(COc2ccccc2-c2nn[nH]c2-c2ccccc2)cc1 [compound 0200722] | 104 |  |  | 
Cn1nc(C(F)(F)F)c(-c2cc(C(F)(F)F)cc(C(F)(F)F)c2)c1-c1ccc(O)cc1O [compound 0200723] | 36 |  | 88 | 
